Source: patent publication US10676829B2, “Corrosion inhibition composition for pipelines, process of elaboration and synthesis” (INSTITUTO MEXICANO DEL PETROLEO, priority 2013, dated 2020)

Experiment: Corrosion inhibition efficiency by electrochemical impedance spectroscopy (EIS), three-electrode cell
Conditions: 40° C., 3 hours
Procedure: Evaluation Using Electrochemical Impedance Spectroscopy (EIS)
The evaluation of corrosion inhibiting properties of the individual structures and binary compositions was carried out in a conventional electrochemical cell (E) with a three electrode arrangement as the one shown in FIG. 1. This cell allows maintaining stirring and constant temperature during development of measurement.
The inhibiting formulations to be evaluated are added in the desired concentration in the test solution (D), whereas a stirring of 2000 rpm and a temperature of 40° C. are maintained. […] The system is maintained under stirring and constant temperature for 3 hours.
After 3 hours, the electrochemical impedance spectrum is obtained in a range of 10 kHz and 10 mHz frequency and the resistance related to corrosion and together with that obtained in an identical experiment but only with the test solution was obtained from this spectrum; the corrosion inhibition efficiency was calculated.

[1] = test water SP1, concentration 50 mg/L
[2] = test water SP1, concentration 500 mg/L
[3] = test water SP1, concentration 2500 mg/L

Work on CCCCCCNCn1nnc2ccccc21 [BZC6, N-(1H-benzotriazole-1-methyl)-hexane-1-amine] yielded an Inhibition efficiency % [1] of 18.2%, an Inhibition efficiency % [2] of 35.3% and an Inhibition efficiency % [3] of 73.7%.

In the case of CCCCCCCCCCCCN=Cc1c[nH]cn1 [IMC12, N-[1H-imidazole-(4-methylidene)]-dodecane-1-amine], the Inhibition efficiency % [1] is reported as 23.1%, the Inhibition efficiency % [2] is reported as 80.9% and the Inhibition efficiency % [3] is reported as 95.4%.

For CCCCCCCCCCCCCCN=Cc1c[nH]cn1 [IMC14, N-[1H-imidazole-(4-methylidene)]-tetradecane-1-amine], the Inhibition efficiency % [1] was 19.8%, the Inhibition efficiency % [2] was 78.9% and the Inhibition efficiency % [3] was 98.0%.

Work on CCCCn1cc[n+](C)c1.[Br-] [MIMC4, 1-butyl-3-methylimidazolium bromide] yielded an Inhibition efficiency % [1] of 15.2%, an Inhibition efficiency % [2] of 61.9% and an Inhibition efficiency % [3] of 76.0%.
